According to patent publication US20140024700A1, “BLOOD-BORNE MIRNAS AS SURROGATE MARKERS OF DRUG EFFICACY FOR CARDIAC CONDITIONS” (miRagen Therapeutics, Inc., priority 2010, published 2014):

Columns and labels:
[1] = tested on: miR-208a, miR-499, miR-208b, Myh6, Myh7b, Myh7, Dynlt1, Vcpip, Tegt; experiment: Cardiac tissue real-time PCR, 6% NaCl diet (Example 3); format: in vivo, rat; conditions: M-10101 25 mg/kg sc, Captopril po daily
Method: (§1) One week following the initiation of the 6.0% NaCl diet, rats were dosed subcutaneously (sc) with saline or oligonucleotides (M−10101, 5′-CTTTTTGCTCGTCTTA-3′ (SEQ ID NO: 12) or M-10591, 5′-TCCTAGAAAGAGTAGA-3′ (SEQ ID NO:13)) at 25 mg/kg every 2 weeks. Captopril or water were dosed daily by oral gavage. Echocardiography was performed every 2 weeks starting one week post […] dosing. The Captopril dose for rat was selected to match the standard human dose in man.
For in vivo real-time PCR analysis, RNA was extracted from cardiac tissue using Trizol (Invitrogen) after which two μg RNA from each tissue sample was used to generate cDNA using Super Script II reverse transcriptase per manufacturer's specifications (Invitrogen). To detect the level of miR-208 RT-PCR was performed using the Taqman MicroRNA assay (Applied Biosystems, ABI) according the manufacturer's recommendations, using 10-100 ng of total RNA. The expression of a subset of genes was analyzed by quantitative real time PCR using Taqman probes purchased from AB.

Dahl salt-sensitive rats = experiment: Dahl salt-sensitive rat model, 6% NaCl diet: body weight and survival (Example 3); format: in vivo
plasma miRNAs = experiment: Real-time PCR of plasma miRNAs, 6% NaCl diet (Example 3); format: in vivo, rat
Method: as §1
Quantitative real-time PCR analysis from plasma. RNA from plasma samples was isolated using Trizol LS Reagent (Invitrogen), using the manufacturer's protocol. Prior to RNA isolation, […] of two different synthetic C. elegans miRNA sequences were added to serve as internal controls for normalization of target miRNAs. The C. elegans sequences used were cel-miR-2 ([…], SEQ ID NO:5), and cel-lin-4 ([…]; SEQ ID NO:6) (Dharmacon). The final RNA pellet was re-suspended in a final volume equal to the initial plasma volume and 5 μl was used for subsequent RT-PCR reactions, as described above.

miR-208a, Myh6, Myh7 = experiment: Cardiac tissue markers by Taqman RT-PCR, 4% NaCl diet (Example 2); format: in vivo, rat; conditions: 25 mg/kg sc every 2 weeks; for Myh6 expression in cardiac tissue: 25 mg/kg
Method: The flowing experimental groups were tested:
Following catheter implant surgery, high-salt diet was initiated. […] Animals were sacrificed 8 weeks after the initial injection.
Tissue RNA was isolated using standard Trizol RNA isolation.

| Compound | Myh7b levels in the heart [1] | αMHC (Myh6) in the heart (reduced by HS diet) [1] | βMHC (Myh7) expression (increase induced by HS diet) [1] | Survival (Kaplan-Meier) (Dahl salt-sensitive rats; 1.5 mg/kg Captopril po daily) | Body weight (Dahl salt-sensitive rats; 15 mg/kg Captopril po daily) | Plasma miR-21 (plasma miRNAs) | Plasma miR-150 (plasma miRNAs) | Plasma miR-223 (plasma miRNAs) | Plasma miR-423-5p, miR-106b, miR-16, miR-92a, miR-378, miR-210, miR-378*, miR-20b and miR-93 (plasma miRNAs) | Myh7 expression in cardiac tissue (miR-208a, Myh6, Myh7) | Myh6 expression in cardiac tissue (miR-208a, Myh6, Myh7) | Myh6 expression in cardiac tissue (miR-208a, Myh6, Myh7; listed as control oligonucleotide) | Body weight (Dahl salt-sensitive rats; oligonucleotide 25 mg/kg sc every 2 weeks) |
| --- | --- | --- | --- | --- | --- | --- | --- | --- | --- | --- | --- | --- | --- |
| C[C@H](CS)C(=O)N1CCC[C@H]1C(=O)O [Captopril, reference compound] | no apparent effect | normalized | reduced the increase | pronounced decrease in survival | slightly reduced the high-salt (HS) diet-induced decrease in body weight | reduced specifically | reduced specifically | significantly reduced | decreased | – | – | – | – |
| M-10591: control oligonucleotide targeting miR-67 from C. elegans; 5′-TCCTAGAAAGAGTAGA-3′ (SEQ ID NO:13) (LNA-modified control oligonucleotide, pattern not given here) [reference compound] | – | – | – | – | – | – | – | – | – | significantly increased | significant decrease | no effect | no apparent effect on weight gain |
